We go through 1 molecule from publication PMC8931322 (Proceedings of the National Academy of Sciences of the …, 2022).

Structures are written as SMILES.

Holding throughout (type): cell-based
One experiment addresses T1, AtSK22 (Arabidopsis thaliana, UniProt Q39012).
T1 sequence (Q39012 2-407): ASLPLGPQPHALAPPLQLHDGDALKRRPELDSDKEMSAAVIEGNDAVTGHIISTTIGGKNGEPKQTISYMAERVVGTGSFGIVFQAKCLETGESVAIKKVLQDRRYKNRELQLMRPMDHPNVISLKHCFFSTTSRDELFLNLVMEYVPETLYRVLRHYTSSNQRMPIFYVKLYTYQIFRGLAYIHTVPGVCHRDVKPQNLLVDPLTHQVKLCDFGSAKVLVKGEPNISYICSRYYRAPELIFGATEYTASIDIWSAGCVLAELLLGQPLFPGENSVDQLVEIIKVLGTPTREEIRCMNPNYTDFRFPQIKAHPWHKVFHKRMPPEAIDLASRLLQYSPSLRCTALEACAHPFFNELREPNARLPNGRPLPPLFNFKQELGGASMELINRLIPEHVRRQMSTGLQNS
Nature of the experiment: CETSA melting curve, Western blot. As to conditions: intact cells, 250 µM bikinin, 30 min.

In another experiment the target is T2, AtSK12 (Arabidopsis thaliana, UniProt P43289).
T2 sequence (P43289 2-409): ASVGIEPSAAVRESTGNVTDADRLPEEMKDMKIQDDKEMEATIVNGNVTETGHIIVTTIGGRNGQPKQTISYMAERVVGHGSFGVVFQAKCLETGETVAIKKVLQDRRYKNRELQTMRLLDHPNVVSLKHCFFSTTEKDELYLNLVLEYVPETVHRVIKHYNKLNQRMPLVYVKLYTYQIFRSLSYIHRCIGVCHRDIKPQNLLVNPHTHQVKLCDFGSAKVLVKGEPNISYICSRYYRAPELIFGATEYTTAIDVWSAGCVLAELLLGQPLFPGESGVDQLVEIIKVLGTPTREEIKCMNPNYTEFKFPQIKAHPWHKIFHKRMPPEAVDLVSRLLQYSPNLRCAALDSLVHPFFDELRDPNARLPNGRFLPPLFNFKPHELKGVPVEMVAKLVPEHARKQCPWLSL
The experiment can be described thus: isothermal dose-response CETSA.

The target of the next experiment is T3, AtSK41 (Arabidopsis thaliana, UniProt Q39019).
T3 sequence (Q39019 1-421): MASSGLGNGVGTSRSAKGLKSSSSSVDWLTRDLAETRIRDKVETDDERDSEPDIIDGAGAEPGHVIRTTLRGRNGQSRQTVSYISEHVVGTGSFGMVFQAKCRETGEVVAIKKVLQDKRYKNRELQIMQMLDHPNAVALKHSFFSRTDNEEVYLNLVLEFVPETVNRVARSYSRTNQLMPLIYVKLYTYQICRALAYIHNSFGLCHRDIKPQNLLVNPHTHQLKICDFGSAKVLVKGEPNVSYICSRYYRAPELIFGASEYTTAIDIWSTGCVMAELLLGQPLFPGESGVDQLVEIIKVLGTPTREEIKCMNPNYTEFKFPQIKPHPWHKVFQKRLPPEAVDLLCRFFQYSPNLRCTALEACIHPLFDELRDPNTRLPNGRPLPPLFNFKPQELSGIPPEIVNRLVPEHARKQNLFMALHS
The experiment can be described thus: CETSA melting curve, Western blot. As to conditions: intact cells, 250 µM bikinin, 30 min. (Immunoblotting shows a protein as a band on a membrane.)

The target in a further experiment is T4, AtSK11 (Arabidopsis thaliana, UniProt P43288).
T4 sequence (P43288 2-405): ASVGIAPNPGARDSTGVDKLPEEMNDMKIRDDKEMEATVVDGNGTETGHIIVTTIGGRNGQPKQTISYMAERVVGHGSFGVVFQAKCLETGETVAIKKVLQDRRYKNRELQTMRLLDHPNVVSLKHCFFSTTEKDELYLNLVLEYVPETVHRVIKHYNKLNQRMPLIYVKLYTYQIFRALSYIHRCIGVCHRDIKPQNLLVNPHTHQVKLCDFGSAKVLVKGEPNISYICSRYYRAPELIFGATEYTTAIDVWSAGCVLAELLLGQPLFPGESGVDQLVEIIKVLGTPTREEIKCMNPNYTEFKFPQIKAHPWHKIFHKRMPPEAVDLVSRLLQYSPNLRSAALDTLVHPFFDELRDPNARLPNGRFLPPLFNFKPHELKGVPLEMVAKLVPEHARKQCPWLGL
The experiment can be described thus: CETSA melting curve, Western blot. As to conditions: intact cells, 250 µM bikinin, 30 min.

The next experiment deals with T5, BIN2/AtSK21 (Arabidopsis thaliana, UniProt Q39011).
T5 sequence (Q39011 1-380): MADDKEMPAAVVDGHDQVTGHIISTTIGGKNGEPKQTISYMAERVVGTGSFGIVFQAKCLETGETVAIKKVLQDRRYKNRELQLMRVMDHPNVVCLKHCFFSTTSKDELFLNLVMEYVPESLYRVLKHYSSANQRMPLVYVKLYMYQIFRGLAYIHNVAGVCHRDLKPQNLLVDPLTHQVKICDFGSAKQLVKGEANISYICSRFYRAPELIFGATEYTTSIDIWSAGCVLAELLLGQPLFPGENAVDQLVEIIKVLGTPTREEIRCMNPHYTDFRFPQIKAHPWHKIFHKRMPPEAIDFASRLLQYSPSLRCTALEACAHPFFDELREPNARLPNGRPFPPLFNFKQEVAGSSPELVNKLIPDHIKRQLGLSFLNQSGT
Nature of the experiment: CETSA melting curve, Western blot. Particulars: intact cells, 250 µM bikinin, 30 min.

`O=C(O)CCC(=O)Nc1ccc(Br)cn1` [bikinin]: the Tm shift entry on AtSK22 is “BIN2/AtSK21, AtSK22, and AtSK41 showed Tm shifts”; at AtSK41, “BIN2/AtSK21, AtSK22, and AtSK41 showed Tm shifts”; on AtSK11 it was “AtSK11, AtSK12, AtSK13, BIN2/AtSK21, AtSK22, and AtSK41 showed Tm shifts”; at BIN2/AtSK21, “BIN2/AtSK21, AtSK22, and AtSK41 showed Tm shifts”. The EC50 (usually the midpoint of the concentration-response curve) at AtSK12 is ~70 µM.
